Where a SMILES comes first, the peptide text is derived from it.
Compound | logP
CCCCNC(=O)n1cc(F)c(=O)[nH]c1=O | 1.44
CCN(CC)C(C)CCCC(=O)Nc1c(C)cccc1C (stereo not drawn) | 2.64
NCCc1cnc[nH]1 | -0.7
CCCCNC(=O)NCCNCC(O)COc1ccc(-c2ncc(C)[nH]2)cc1 (stereo not drawn) | 1.24
CCCOc1ccc(CC(=O)O)cc1 | 2.31
COc1ccc(CC(C)N)cc1OC (stereo not drawn) | 1.2
O=C1c2ccccc2C(=O)C1c1cccc(C(F)(F)F)c1 | 3.78
CNC(=O)Oc1ccc(N(C)C)c(C)c1 | 1.9
CC(=O)Oc1cccc(OC(C)=O)c1C(N)=O | -0.62
CC(=O)c1cccc(Nc2ccccc2C(=O)O)c1 | 4.07
Cc1ccccc1NC1=NCCN1 | 1.28
CC1CCCC(c2ccccc2)(N2CCCCC2)C1 (stereo not drawn) | 5.86
CC1CC2C3CC(F)C4=CC(=O)C(Cl)=CC4(C)C3(Cl)C(O)CC2(C)C1(O)C(=O)COC(=O)C(C)(C)C (stereo not drawn) | 4.73
C=C(C)C(=O)OCC(F)(F)F | 1.56
COc1ccc(CCNCC(O)COc2ccc(-c3ncc(C)[nH]3)cc2OC)cc1OC (stereo not drawn) | 1.89
CCCCCCC(C)(C)c1cc(O)c2c(c1)OC(C)(C)C1CCC(C=O)=CC21 (stereo not drawn) | 8.03
COc1cccc2c1C(=O)c1c(O)c3c(c(O)c1C2=O)CC(O)(C(C)=O)CC3OC1CC(N2CCOCC2)C(O)C(C)O1 (stereo not drawn) | 2.31
OC(Cn1ccnc1)(c1ccc(F)cc1)c1ccc(-c2ccccn2)cc1 (stereo not drawn) | 3.58
O=C(CN1CCCC1)NCc1ccccc1 | 1.69
CC(C)C(=O)OCC1OC(n2cc(I)c(=O)[nH]c2=O)C1O (stereo not drawn) | 0.83
CCCCCC1Nc2cc(C(F)(F)F)c(S(N)(=O)=O)cc2S(=O)(=O)N1 (stereo not drawn) | 2.66
CCCn1c(=O)n(C)c(=O)c2nc[nH]c21 | 1.02

Compound | logP
Cc1cc(Cl)cc(C)c1NC1=NCCN1 | 2.5
CC(C)(C)c1cccc(C2C(=O)c3ccccc3C2=O)c1 | 4.88
Clc1ccc(-c2ccccc2Cl)cc1 | 5.09
O=C(Cn1ccnc1[N+](=O)[O-])NCC(O)CO (stereo not drawn) | -1.85
O=c1[nH]c2ccccc2cc1-c1ccccc1 | 2.99
CCCCCCCCc1ccccc1 | 6.3
CCOC(=O)CC[C@H](NC(=O)c1ccc(N(C)Cc2cnc3nc(N)nc(N)c3n2)cc1)C(=O)OCC | 0.98
CC(=O)c1nc([N+](=O)[O-])n(CC(C)O)c1C (stereo not drawn) | 0.37
O=[N+]([O-])c1nccn1CCN1CCOCC1 | -0.1
CC(=O)Nc1nc(N2CCN(C)CC2)c(Cl)nc1[N+](=O)[O-] | 0.5
CC/C=C\C/C=C\C/C=C\CCCCCCCC(=O)O | 6.46
CCCCOC(=O)c1cc(=O)[nH]c(=O)[nH]1 | 1.06
COc1ncnc(NS(=O)(=O)c2ccc(N)cc2)c1OC(C)C | 1.03
Cc1ccccc1C(OCCN(C)C)c1ccccc1 (stereo not drawn) | 3.77
CN(Cc1ccc(Cl)cc1)N=Nc1ccc(C(=O)O)cc1 | 4.85
O=C1c2ccccc2C(=O)C1c1ccc(Br)cc1 | 3.76
CCN1CCCCC1 | 1.75
CCOC(=O)C=COc1ccccc1Cl | 3.55
COCc1cnc(-c2ccc(OCC(O)CNCCc3ccc(OC)c(OC)c3)cc2)[nH]1 (stereo not drawn) | 1.71
CCCCCc1cc(O)c2c(c1)OC(C)(C)C1CC=C(C)CC21 (stereo not drawn) | 7.41
CCCCCCCCCCCC(=O)O | 4.6
Oc1cccc2c1CCCC2 | 2.95

Compound | logP
CNC(=O)OCc1c2c(n3c1C(OC(C)=O)CC3)C(=O)C=C(N1CCCC1)C2=O (stereo not drawn) | 1.4
CC(C)(C)c1cc(C2C(=O)c3ccccc3C2=O)cc(C(C)(C)C)c1 | 6.86
O=C(c1c(F)cccc1F)c1ccc2n1CCC2C(=O)O (stereo not drawn) | 2.47
Brc1cc2ccccc2nn1 | 1.72
Cc1cnc2n(c1=O)CCCC2 | 0.12
COc1ccc(C(O)(Cn2ccnc2)c2ccc(Br)cc2)cc1 (stereo not drawn) | 4.02
NC1CCc2ccccc2C1 (stereo not drawn) | 2.08
C=C(C)C(=O)OC1CC2=CC(CC3(C)OC3C3OC(=O)C(=C)C13)OC2=O (stereo not drawn) | 0.69
Cc1ccc(O)c(CO)c1 | 0.97
CCC1(CC)C(=O)NC(=O)N=C1OC(C)C | 1.86
COc1cc(C(=O)OC2N=C(c3ccccc3)c3cc(Cl)ccc3NC2=O)cc(OC)c1OC (stereo not drawn) | 3.75
COc1cccc(NC(=O)CN2CCCCC2)c1 | 2.71
OC(Cn1ccnc1)(c1ccc(F)cc1)c1cccc(-c2ccncc2)c1 (stereo not drawn) | 2.91
CC(C(=O)NCCO)n1ccnc1[N+](=O)[O-] (stereo not drawn) | -1.16
CCCCn1c(=O)[nH]c(=O)c2[nH]cnc21 | 0.84
CCN1CC(C(O)C(CC2CCCCC2)NC(=O)C(Cc2c[nH]cn2)NC(=O)C(Cc2ccc(OC)cc2)NC(=O)N2CC(OCOCCOC)C(OCOCCOC)C2)OC1=O (stereo not drawn) | 1.67
Nc1ncnc2c1ncn2[C@H]1CC[C@@H](CO)O1 | -0.25
COc1cc(Cc2cnc(N)nc2N)ccc1C(C)C | 3.14
C=CCC(NC(=O)C(Cc1ccccc1)NS(=O)(=O)N1CCOCC1)C(=O)NC(COC(F)(F)C(=O)NCCN1CCOCC1)CC1CCCCC1 (stereo not drawn) | 3.17
CC1CC(C)(C)CC(c2ccccc2)(N2CCCCC2)C1 (stereo not drawn) | 6.35
CC(C)(C)c1ccc(CC(=O)O)cc1 | 2.98
CC(=O)OC1CC2C(CCC3CC(OC4CC(O)C(OC5CC(O)C(OC6CC(O)C(O)C(C)O6)C(C)O5)C(C)O4)CCC32C)C2(O)CCC(C3=CC(=O)OC3)C12C (stereo not drawn) | 2.29

Compound | logP
Cc1cn([C@H]2C[C@H](O)[C@@H](CO)O2)c(=O)[nH]c1=O | -0.93
Nc1ncc(Cc2cc3c(cc2Br)OCO3)c(N)n1 | 2.48
COCCNC(=O)COc1ccc(OCCNCC(O)COc2ccccc2)cc1 (stereo not drawn) | 1.7
CC(=O)c1c(O)c(C)c(O)c2c1OC1=CC(=O)C(C(C)=O)C(=O)C12C (stereo not drawn) | 2.88
O=[N+]([O-])c1cn(CCN2CCOCC2)cn1 | -0.38
CCCCCCCCCCOc1ccc(C(=O)O)cc1 | 6.29
CCCCCCCCCCCC(=O)CC(=O)Nc1c(OC)cc(OC)cc1OC | 5.02
CCCC(=O)OCC(Cc1cncn1C)C(CC)C(=O)OCc1ccccc1 (stereo not drawn) | 3.78
CC1CCC(c2ccccc2)(N2CCCCC2)CC1 (stereo not drawn) | 5.66
CC(C)N1C(=O)SC(=Cc2ccc([N+](=O)[O-])o2)C1=O | 2.42
CCCCC/C=C\C/C=C\C/C=C\C/C=C\CCCC(=O)O | 6.98
O=C(c1ccc(C(F)(F)F)cc1)c1ccc2n1CCC2C(=O)O (stereo not drawn) | 3.71
Cc1ccc(S(=O)(=O)NC(=O)NN2CCCCCC2)cc1 | 2.69
O=C(COc1ccc(OCCNCC(O)COc2ccccc2)cc1)NCCCO (stereo not drawn) | 0.5
CON=C(C(=O)N[C@@H]1C(=O)N2C(C(=O)O)=C(COC(N)=O)CS[C@H]12)c1ccco1 | -0.16
COc1cccc2c1C(=O)c1c(O)c3c(c(O)c1C2=O)CC(O)(C(C)=O)CC3OC1CC(N2CCOCC2C#N)C(O)C(C)O1 (stereo not drawn) | 2.59
CC(=O)NCC(=O)N[C@H](C(N)=O)C(C)C (Ac-Gly-Val-NH2) | -1.33
CC1(C)[C@@H](O[C@H]2O[C@H](C(=O)O)[C@@H](O)[C@H](O)[C@H]2O[C@@H]2O[C@H](C(=O)O)[C@@H](O)[C@H](O)[C@H]2O)CC[C@]2(C)[C@H]3C(=O)C=C4[C@@H]5C[C@@](C)(C(=O)O)CC[C@]5(C)CC[C@@]4(C)[C@]3(C)CC[C@@H]12 | 2.8
CCNC(=O)c1cc(Br)cc(C)c1O | 3.61
Cc1cn([C@H]2C=C[C@@H](CO)O2)c(=O)[nH]c1=O | -0.72
C=C(C)C(=O)OCC(C)(O)COc1cccc2ccccc12 (stereo not drawn) | 3.77
O=C(CN1CCCCC1)Nc1ccc(Cl)c(Cl)c1 | 3.65

From the OPERA property sets (Mansouri et al. 2018)
